Measurements: PMC10112232, “Comparison of Toxicities among Different Bumped Kinase Inhibitor Analogs for Treatment of Cryptosporidiosis” (Antimicrobial Agents and Chemotherapy, 2023)
Values after ≈ are worked out from the molar mass of the structure shown. Like-named read-outs stand apart in the source and are kept apart here.

What was measured:
[1] = test system: Cryptosporidium; parameters: method as in PMID 12423984, PMID 11398117, PMID 26568906; settings: malnourished children (subtracting placebo efficacy); cited from earlier work
[2] = molecular target: T1, C. parvum calcium dependent protein kinase 1 (CpCDPK1) (Cryptosporidium parvum, UniProt A3FQ16); assay: In vitro inhibition of CpCDPK1; format: biochemical
T1 sequence (A3FQ16 1-538): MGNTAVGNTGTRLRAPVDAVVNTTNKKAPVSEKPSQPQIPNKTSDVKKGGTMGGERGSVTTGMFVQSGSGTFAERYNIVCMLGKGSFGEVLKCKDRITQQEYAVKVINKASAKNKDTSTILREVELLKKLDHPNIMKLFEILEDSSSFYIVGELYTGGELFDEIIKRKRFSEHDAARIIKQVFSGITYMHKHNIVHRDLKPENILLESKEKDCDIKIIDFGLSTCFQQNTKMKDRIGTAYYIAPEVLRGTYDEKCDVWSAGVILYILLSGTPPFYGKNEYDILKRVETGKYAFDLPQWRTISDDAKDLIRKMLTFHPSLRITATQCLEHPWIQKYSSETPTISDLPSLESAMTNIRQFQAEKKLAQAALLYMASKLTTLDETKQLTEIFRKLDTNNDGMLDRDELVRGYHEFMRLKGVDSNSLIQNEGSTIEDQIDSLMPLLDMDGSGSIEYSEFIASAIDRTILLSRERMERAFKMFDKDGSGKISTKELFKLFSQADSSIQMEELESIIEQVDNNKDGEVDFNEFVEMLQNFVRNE
Description: (§1) Methods for synthesis of BKIs ([17], [23]), efficacy against Nluc expressing C. parvum in infected adult IFN-γ KO mice ([6], [9]), in vivo mouse GI tract tissue exposure by LC/MS-MS analysis ([18], [28]), PK analysis of mouse plasma and brain tissue BKI concentrations by LC/MS-MS analysis ([29]), in vivo rat and dog cardiotoxicity screen ([30]), efficacy against IOWA-II strain C. parvum in infected neonatal calves ([13]), efficacy against C. hominis in infected piglets ([12]), in vitro inhibition of C. parvum CDPK1 (CpCDPK1) and human tyrosine kinase SRC (HsSRC) activity ([31]), in vitro inhibition of hERG ([32]), Nluc expressing C. parvum in vitro growth inhibition in infected HCT-8 cells ([6]), in vitro cytotoxicity in CRL-8155 and HepG2 cells ([29]), and mouse locomotor activity box ([33], [34]) have all been previously described. Analytes were measured by LC/MS-MS on an Acquity ultra performance liquid chromatography (UPLC) system in tandem with a Xevo TQ-S mass spectrometer (Waters, Milford, MA, USA).

[3] = molecular target: human tyrosine kinase SRC (HsSRC) (Homo sapiens, UniProt P12931); assay: In vitro inhibition of HsSRC; format: biochemical; settings: read-out: HsSR IC50
Description: as §1

[4] = Aqueous solubility; format: physicochemical
Description: TABLE 1 In vitro properties of bumped kinase inhibitors^a | column: Solubility at pH 2 (μM); Solubility at pH 6.5 (μM)

[5] = In vitro cytotoxicity in HepG2 cells; format: cell-based; settings: human
Description: as §1

[6] = test system: Nluc expressing C. parvum; assay: Nluc expressing C. parvum in vitro growth inhibition in infected HCT-8 cells; format: cell-based; settings: Cryptosporidium parvum
Description: as §1

[7] = In vitro cytotoxicity in CRL-8155 cells; format: cell-based; settings: human
Description: as §1

[8] = molecular target: hERG (Homo sapiens, UniProt Q12809); settings: cited from earlier work
[9] = Cardiovascular testing in anesthetized dogs; format: in vivo, dog; settings: dogs (data not shown)
Description: as §1

[10] = rat, in vivo; cited from earlier work

Sequence of hERG (Q12809 whole entry): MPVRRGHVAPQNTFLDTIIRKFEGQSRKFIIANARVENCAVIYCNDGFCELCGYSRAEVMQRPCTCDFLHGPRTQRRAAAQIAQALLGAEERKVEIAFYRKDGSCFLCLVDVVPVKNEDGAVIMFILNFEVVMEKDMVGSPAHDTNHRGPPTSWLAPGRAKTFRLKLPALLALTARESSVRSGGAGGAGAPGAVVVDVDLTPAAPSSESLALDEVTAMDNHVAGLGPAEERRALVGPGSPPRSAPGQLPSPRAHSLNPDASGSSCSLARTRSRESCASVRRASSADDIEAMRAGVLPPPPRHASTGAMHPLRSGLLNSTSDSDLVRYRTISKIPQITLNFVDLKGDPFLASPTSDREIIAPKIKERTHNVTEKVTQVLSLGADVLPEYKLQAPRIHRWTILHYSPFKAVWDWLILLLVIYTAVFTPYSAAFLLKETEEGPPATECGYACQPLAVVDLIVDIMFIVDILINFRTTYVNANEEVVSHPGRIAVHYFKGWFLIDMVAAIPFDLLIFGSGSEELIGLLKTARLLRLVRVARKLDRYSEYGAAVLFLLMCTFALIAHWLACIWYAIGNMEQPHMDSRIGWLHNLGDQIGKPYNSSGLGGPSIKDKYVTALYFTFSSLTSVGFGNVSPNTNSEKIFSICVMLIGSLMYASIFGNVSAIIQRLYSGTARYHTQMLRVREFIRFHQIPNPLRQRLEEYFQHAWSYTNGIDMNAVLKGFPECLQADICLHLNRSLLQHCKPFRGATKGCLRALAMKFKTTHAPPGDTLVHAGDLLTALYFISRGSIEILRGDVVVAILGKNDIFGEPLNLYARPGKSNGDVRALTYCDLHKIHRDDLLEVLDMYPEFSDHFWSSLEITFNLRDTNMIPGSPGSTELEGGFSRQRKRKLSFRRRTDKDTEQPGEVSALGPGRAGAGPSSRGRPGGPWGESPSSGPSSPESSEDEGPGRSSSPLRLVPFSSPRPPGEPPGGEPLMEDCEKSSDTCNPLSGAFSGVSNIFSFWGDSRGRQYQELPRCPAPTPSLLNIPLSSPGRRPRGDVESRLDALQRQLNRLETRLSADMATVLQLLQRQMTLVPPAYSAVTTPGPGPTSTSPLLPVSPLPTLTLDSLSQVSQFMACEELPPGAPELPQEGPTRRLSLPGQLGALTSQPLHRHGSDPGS
Sequence of human tyrosine kinase SRC (HsSRC) (P12931 whole entry): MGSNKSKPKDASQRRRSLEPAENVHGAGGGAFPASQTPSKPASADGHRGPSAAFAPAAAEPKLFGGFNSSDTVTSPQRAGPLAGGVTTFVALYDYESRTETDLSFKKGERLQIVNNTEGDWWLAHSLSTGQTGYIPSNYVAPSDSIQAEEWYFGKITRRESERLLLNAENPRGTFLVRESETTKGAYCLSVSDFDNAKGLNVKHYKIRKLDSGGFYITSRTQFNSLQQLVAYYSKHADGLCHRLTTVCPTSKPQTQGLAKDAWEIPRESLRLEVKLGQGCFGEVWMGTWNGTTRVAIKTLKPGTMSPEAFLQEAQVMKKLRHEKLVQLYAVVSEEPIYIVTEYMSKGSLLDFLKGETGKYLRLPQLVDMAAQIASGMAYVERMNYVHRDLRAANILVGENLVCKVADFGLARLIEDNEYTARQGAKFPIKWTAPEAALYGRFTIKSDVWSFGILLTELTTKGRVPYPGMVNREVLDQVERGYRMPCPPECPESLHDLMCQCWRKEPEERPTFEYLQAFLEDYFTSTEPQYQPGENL

Compound: CC(=O)Oc1ccccc1C(=O)Nc1ncc([N+](=O)[O-])s1 [Nitazoxanide]
- efficacy [1]: about 30%

Compound: CC(C)(CCO)n1nc(-c2ccc3cc(O)ccc3c2)c(C(N)=O)c1N [1770-M5]
- IC50 [2]: 0.018 µM
- IC50 [3]: 5.4 µM
- solubility ([4]; aqueous medium at pH 2, pH 2, simulated gastric fluid, read-out: Solubility at pH 2): 89 µM (≈ 31.5 µg/mL)
- solubility ([4]; aqueous medium at pH 6.5, pH 6.5, aqueous buffer, read-out: Solubility at pH 6.5): > 100 µM
- CC50 [5]: > 80 µM
- EC50 [6]: 2.1 µM
- CC50 [7]: > 80 µM

Compound: CCOc1ccc2cc(-c3nn(CC4CCN(C)CC4)c4ncnc(N)c34)ccc2c1 [BKI-1294]
- inhibition of hERG in vitro [8]: submicromolar range

Compound: CCOc1ccc2cc(-c3nn(CC4CCN(C)CC4)c4ncnc(N)c34)ccc2n1 [BKI-1369]
- cardiotoxicity in vivo [9]: Cardiotoxicity was additionally seen
- cardiotoxicity in vivo [10]: Cardiotoxicity was additionally seen
- cardiotoxicity in the in vitro hERG assay [8]: Cardiotoxicity was additionally seen
